Results on three molecules are retold here after patent publication US20100216706A1, “Ghrelin Protects Substantia Nigra Dopamine Neurons” (priority 2007, published 2010).

Series [1] can be described thus: Body weight gain after MPTP in ghrelin wt and ko mice. In kind it is in vivo. Conditions: from day 1 to day 7 after MPTP. The source says:
(§1) Control animals were given saline. Animals were sacrificed and perfused 7 days later and processed for immunohistochemistry or HPLC for dopamine (DA) and metabolites. n=8-10 for ghrelin wt and ko mice; n=6 for GHSR wt/wt, homo/wt and homo/TG.
Wt and ko mice treated with saline gained a similar amount of weight over the 7 days (wt saline 1.39±0.19 g vs ko saline 1.59±0.49 g).

For a further series, the system named is TH neurons in the SNpc. Put plainly: MPTP-induced TH cell loss in the SNpc (stereology, optical fractionator). In kind it is in vivo, mice.
Description: as §1
TH cell quantification: Free floating sections were stained with TH (1:5000, Chemicon International) and visualized with DAB using standard procedures.
Unbiased stereology methods were used to quantify TH immunoreactive cells in the SNpc. Cells were visualized by a Zeiss microscope and relayed via a MicroFibre digital camera (www(dot)optronics(dot)com) to a computer where they were counted using the optical fractionator with the sophisticated Stereolnvestigator software (MicroBrightField, Williston, Vt., USA). Every fourth section was collected through the SNpc, and TH cells were counted in grids randomly positioned by the software in the outlined counting area through all optical planes, thus creating a 3 dimensional counting area.
(§2) The observation that ghrelin promotes SNpc DA neuronal function, mitochondrial respiration and number raises the possibility that ghrelin may protect nigrostriatal dopaminergic system during increased cellular stress. […] In brief, mice were treated with daily IP injections of exogenous ghrelin (10 nmols) or saline for 14 days. Mice were injected immediately before the dark phase, and food was removed overnight since calorie intake and postprandial increases in glucose and insulin can suppress the action of ghrelin (Cummings et al., 2006, Physiol Behav 89: 71-84). Both ghrelin and saline treated mice were given 3 grams of standard chow the following morning at 9 am. […] After the subsequent 7 days of treatment (saline or ghrelin), TH immunoreactive neurons were counted blind by two independent researchers using the non-biased optical fractionator on the stereology program, Stereoinvestigator.

In another series the test system is striatal dopamine. The series is described as follows: Striatal dopamine after MPTP (HPLC). In kind it is in vivo, mice. The settings on record: saline 14 days, MPTP on day 7. How it is done:
as §1
The samples were subsequently thawed in 0.4 ml of chilled 0.1 M perchloric acid and sonicated. Aliquots were taken for protein quantification using a spectrophotometric assay. Other aliquots were centrifuged, and DA levels were measured in supernatants by high pressure liquid chromatography (HPLC) with electrochemical detection. Concentrations of DA and metabolites were expressed as ng/mg protein (mean±SEM).
as §2

In series [2] the target is growth hormone secretagogue receptor 1a (GHSR) on SNpc dopamine neurons, species of the tissue not stated for the experiment (mouse and/or rat). The series is described as follows: cell-based or functional assay.
The conditions of series [3]: Matsumoto et al., 2001; cited from earlier work.

Values joined by “and” are separate entries in the source; they are usually repeats but may differ in a detail not shown here. Identical values can stand only once. *: point of attachment. Octyl = CCCCCCCC*

Regarding `CN1CC=C(c2ccccc2)CC1` [MPTP, 1-methyl-4-phenyl-1,2,5,6 tetrahydropyridine], in series [1] (ko saline 1.59±0.49), the “Body weight gain, ghrelin ko mice” value was 1.37 ± 0.15 g. Further, the “Body weight gain, ghrelin wt mice” value in series [1] (wt saline 1.39±0.19) is 2.16 ± 0.10 g and 2.17 ± 0.10 g. Moreover, the “TH-immunoreactive cells in SNpc, ghrelin−/− mice” value with TH neurons in the SNpc (MPTP 30 mg/kg IP, 7 days, ko saline 8580±78) is 3691±550. The “TH-immunoreactive cells in SNpc, ghrelin+/+ mice” value in the series on TH neurons in the SNpc (MPTP 30 mg/kg IP, 7 days, wt saline 9105±342) is 6688±610. Moreover, the “TH neurons in SNpc, GHSR homo/TG (TH-only) mice” value with TH neurons in the SNpc (MPTP, homo/TG saline 12293±1123) is 9401±743. The “TH neurons in SNpc, GHSR homo/wt (null) mice” value in the series on TH neurons in the SNpc (MPTP, homo/wt saline 11590±1133) stood at 6582±636. For the same molecule, the “TH neurons in SNpc, GHSR wt/wt mice” value with TH neurons in the SNpc (MPTP, wt/wt saline 11902±713) came to 9171±765. Besides, the “Dopamine cell loss compared to controls, saline treatment after MPTP lesion” value with TH neurons in the SNpc (saline 14 days, MPTP on day 7) is 49%. Moreover, the “Total TH neurons in SNpc, sal/MPTP” value in the series with TH neurons in the SNpc (wt mice, saline 14 days, MPTP 30 mg/kg IP on day 7, sal/sal 11283±342) is 5750±432. Moreover, the “Loss of striatal dopamine vs controls, sal/MPTP” value with striatal dopamine stood at 65%. Besides, the “Striatal dopamine concentration, sal/MPTP” value in the series with striatal dopamine (sal/sal 147.4±10.2) came to 51.4±2.7 ng/mg protein.

As to “ghrelin (unlabeled, Phoenix Pharmaceuticals) (peptide)”, the action potential frequency of SNpc DA neurons (whole-cell current clamp, brain slices) in series [2] is 132 % of control.

In the case of “5-aminopentanoyl-Ser(Octyl)-Phe-Leu-aminoethylamide ({5‑aminopentanoyl}-Ser(Octyl)-Phe-Leu-aminoethylamide; also: acylation site at position 3; listed as Homo sapiens)”, the Ghrelin activity result in series [3] is given as “potent ghrelin activity”.
